According to US20230250106A1, “COMPOUNDS AND COMPOSITIONS FOR TREATING CONDITIONS ASSOCIATED WITH STING ACTIVITY” (IFM Due, Inc., priority 2020, published 2023):

test system: STING pathway; experiment: STING reporter assay: luciferase reporter activity in THP1-Dual KO-IFNAR2 cells activated with 2'3'cGAMP; assay type: cell-based; design: hSTING EC50: scale not given here; conditions: 2'3'cGAMP 15 μM, 24 h
Method: STING pathway activation by the compounds described herein was measured using THP1-Dual™ cells (KO-IFNAR2).
THP1-Dual™ KO-IFNAR2 Cells (obtained from invivogen) were maintained in RPMI, 10% FCS, 5 ml P/S, 2 mM L-glut, 10 mM Hepes, and 1 mM sodium pyruvate. Compounds were spotted in empty 384 well tissue culture plates (Greiner 781182) by Echo for a final concentration of 0.0017-100 μM. Cells were plated into the TC plates at 40 μL per well, 2×10E6 cells/mL. For activation with STING ligand, 2′3′cGAMP (MW 718.38, obtained from Invivogen), was prepared in Optimem media.
The following solutions were prepared for each 1×384 plate: • Solution A: 2 mL Optimem with one of the following stimuli: • 60 μL of 10 mM 2′3′cGAMP→150 μM stock • Solution B: 2 mL Optimem with 60 μL Lipofectamine 2000→Incubate 5 min at RT
2 mL of solution A and 2 ml Solution B was mixed and incubated for 20 min at room temperature (RT). 20 μL of transfection solution (A+B) was added on top of the plated cells, with a final 2′3′cGAMP concentration of 15 μM. The plates were then centrifuged immediately at 340 g for 1 minute, after which they were incubated at 37° C., 5% CO2,>98% humidity for 24 h. Luciferase reporter activity was then measured. EC50 values were calculated by using standard methods known in the art.
Luciferase reporter assay: 10 μL of supernatant from the assay was transferred to white 384-plate with flat bottom and squared wells. One pouch of QUANTI-Luc™ Plus was dissolved in 25 mL of water. 100 μL of QLC Stabilizer per 25 mL of QUANTI-Luc™ Plus solution was added. 50 μL of QUANTI-Luc™ Plus/QLC solution per well was then added. Luminescence was measured on a Platereader (e.g., Spectramax I3X (Molecular Devices GF3637001)).
Luciferase reporter activity was then measured. EC50 values were calculated by using standard methods known in the art.

hSTING EC50	SMILES
+ +	COc1ncc(C(=O)Nc2c[nH]c3cc(F)c(F)cc23)cc1C(F)(F)F [Compound 264, N-(5,6-difluoro-1H-indol-3-yl)-6-methoxy-5-(trifluoromethyl)pyridine-3-carboxamide]

same assay, conditions: Homo sapiens, 2'3'cGAMP 15 μM, 24 h, read-out: hSTING EC50

EC50 [nM]	SMILES
40 to 200	O=C(Nc1c[nH]c2ccc(Cl)cc12)c1ccc(CC2CCN(CC(F)(F)F)CC2)cc1 [Compound 229, N-(5-chloro-1H-indol-3-yl)-4-((1-(2,2,2-trifluoroethyl)piperidin-4-yl)methyl)benzamide]
200 to 1000	O=C(Nc1c[nH]c2cc(F)c(F)cc12)c1ccnc(NCCCC(F)(F)F)c1 [Compound 203, N-(5,6-difluoro-1H-indol-3-yl)-2-((4,4,4-trifluorobutyl)amino)isonicotinamide]
40 to 200	O=C(Nc1c[nH]c2cc(F)c(F)cc12)c1ccc(OCCC(F)(F)F)c(F)c1 [Compound 160, N-(5,6-difluoro-1H-indol-3-yl)-3-fluoro-4-(3,3,3-trifluoropropoxy)benzamide]
40 to 200	O=C(Nc1c[nH]c2ccc(Cl)cc12)c1ccc(OC2CCN(CC(F)(F)F)CC2)cc1 [Compound 230, N-(5-chloro-1H-indol-3-yl)-4-((1-(2,2,2-trifluoroethyl)piperidin-4-yl)oxy)benzamide]
1000 to 5000	O=C(Nc1c[nH]c2cc(F)c(F)cc12)c1cnc(CN2CC(F)(F)C2)c(Cl)c1 [Compound 255, 5-chloro-N-(5,6-difluoro-1H-indol-3-yl)-6-((3,3-difluoroazetidin-1-yl)methyl)nicotinamide]
1000 to 5000	Cc1ncc(C(=O)Nc2c[nH]c3cc(F)c(F)cc23)cc1N1CCC(F)(F)CC1 [Compound 256, N-(5,6-difluoro-1H-indol-3-yl)-5-(4,4-difluoropiperidin-1-yl)-6-methylnicotinamide]
200 to 1000	O=C(Nc1c[nH]c2cc(F)c(F)cc12)c1cnc(N2CCC(F)(F)CC2)c(F)c1 [Compound 154, N-(5,6-difluoro-1H-indol-3-yl)-6-(4,4-difluoropiperidin-1-yl)-5-fluoronicotinamide]
200 to 1000	O=C(Nc1c[nH]c2cc(F)c(F)cc12)c1ccnc(Oc2ccccc2)c1 [Compound 263, N-(5,6-difluoro-1H-indol-3-yl)-2-phenoxypyridine-4-carboxamide]
200 to 1000	O=C(Nc1c[nH]c2cc(F)c(F)cc12)c1ccc(C(F)(F)F)c(CCO)c1 [Compound 280, N-(5,6-difluoro-1H-indol-3-yl)-3-(2-hydroxyethyl)-4-(trifluoromethyl)benzamide]
200 to 1000	CC(C)Oc1cc(C(=O)Nc2c[nH]c3cc(F)c(F)cc23)ccn1 [Compound 113, N-(5,6-difluoro-1H-indol-3-yl)-2-(propan-2-yloxy)pyridine-4-carboxamide]
200 to 1000	O=C(Nc1c[nH]c2cc(F)c(F)cc12)c1ccc(C2CC(F)(F)C2)nc1 [Compound 216, N-(5,6-difluoro-1H-indol-3-yl)-6-(3,3-difluorocyclobutyl)nicotinamide]
200 to 1000	N#Cc1cc(C(=O)Nc2c[nH]c3cc(F)c(F)cc23)ccc1N1CCC(F)(F)CC1 [Compound 188, 3-cyano-N-(5,6-difluoro-1H-indol-3-yl)-4-(4,4-difluoropiperidin-1-yl)benzamide]
200 to 1000	O=C(Nc1c[nH]c2cc(F)c(F)cc12)c1ccc(C2(O)CCC(F)(F)CC2)cc1 [Compound 187, 4-(4,4-difluoro-1-hydroxycyclohexyl)-N-(5,6-difluoro-1H-indol-3-yl)benzamide]
40 to 200	COCCC1CCN(c2ncc(C(=O)Nc3c[nH]c4cc(F)c(F)cc34)cc2Cl)CC1 [Compound 163, 5-chloro-N-(5,6-difluoro-1H-indol-3-yl)-6-(4-(2-methoxyethyl)piperidin-1-yl)nicotinamide]
5000 to 100000	O=C(Nc1c[nH]c2cc(F)c(F)cc12)c1ccc(OC(F)F)cn1 [Compound 270, N-(5,6-difluoro-1H-indol-3-yl)-5-(difluoromethoxy)pyridine-2-carboxamide]
200 to 1000	O=C(Nc1c[nH]c2cc(F)c(F)cc12)c1cc(F)c(OCC(F)(F)F)c(F)c1 [Compound 115, N-(5,6-difluoro-1H-indol-3-yl)-3,5-difluoro-4-(2,2,2-trifluoroethoxy)benzamide]
40 to 200	O=C(Nc1c[nH]c2cc(F)c(F)cc12)c1ccc(N2C[C@@H]3[C@@H](COCC(F)(F)F)[C@@H]3C2)c(F)c1 [Compound 227, N-(5,6-difluoro-1H-indol-3-yl)-3-fluoro-4-((1R,5S,6r)-6-((2,2,2-tifluoroethoxy)methyl)-3-azabicyclo[3.1.0]hexan-3-yl)benzamide]
40 to 200	O=C(Nc1c[nH]c2cc(F)c(F)cc12)c1ccc(CCOC(F)(F)F)cc1 [Compound 110, N-(5,6-difluoro-1H-indol-3-yl)-4-(2-(trifluoromethoxy)ethyl)benzamide]
200 to 1000	CC(C)n1cc(-c2ccc3[nH]cc(NC(=O)c4cnc(N5CCC(F)(F)CC5)c(Cl)c4)c3c2)cn1 [Compound 102, 5-chloro-6-(4,4-difluoropiperidin-1-yl)-N-(5-(1-isopropyl-1H-pyrazol-4-yl)-1H-indol-3-yl)nicotinamide]
200 to 1000	O=C(Nc1c[nH]c2cc(F)c(F)cc12)c1ccc(OC2CN(CC(F)(F)F)C2)nc1 [Compound 246, N-(5,6-difluoro-1H-indol-3-yl)-6-((1-(2,2,2-trifluoroethyl)azetidin-3-yl)oxy)nicotinamide]
200 to 1000	CCOc1c(F)ccc(C(=O)Nc2c[nH]c3cc(F)c(F)cc23)c1F [Compound 198, N-(5,6-difluoro-1H-indol-3-yl)-3-ethoxy-2,4-difluorobenzamide]
40 to 200	O=C(Nc1c[nH]c2cc(F)c(F)cc12)c1cnc(N2CC3(CC(OCC(F)(F)F)C3)C2)c(F)c1 [Compound 221, N-(5,6-difluoro-1H-indol-3-yl)-5-fluoro-6-(6-(2,2,2-trifluoroethoxy)-2-azaspiro[3.3]heptan-2-yl)nicotinamide]
200 to 1000	O=C(Nc1c[nH]c2cc(F)c(F)cc12)c1ccc(OCC2CC2)c(Cl)c1 [Compound 195, 3-chloro-4-(cyclopropylmethoxy)-N-(5,6-difluoro-1H-indol-3-yl)benzamide]
1000 to 5000	O=C(Nc1c[nH]c2cc(F)c(F)cc12)c1cccc(OCc2ccccc2)c1 [Compound 131, 3-(benzyloxy)-N-(5,6-difluoro-1H-indol-3-yl)benzamide]
5000 to 100000	O=C(Nc1c[nH]c2cc(F)c(F)cc12)c1cccc(OC2CCOCC2)n1 [Compound 124, N-(5,6-difluoro-1H-indol-3-yl)-6-(oxan-4-yloxy)pyridine-2-carboxamide]
200 to 1000	O=C(Nc1c[nH]c2cc(F)c(F)cc12)c1ccc(C2CCC(F)(F)CC2)c(Cl)c1 [Compound 166, 3-chloro-N-(5,6-difluoro-1H-indol-3-yl)-4-(4,4-difluorocyclohexyl)benzamide]
200 to 1000	O=C(Nc1c[nH]c2cc(F)c(F)cc12)c1ccc(-c2noc(C3CC3)n2)cc1 [Compound 266, 4-(5-cyclopropyl-1,2,4-oxadiazol-3-yl)-N-(5,6-difluoro-1H-indol-3-yl)benzamide]
5000 to 100000	Cc1cc(C(=O)Nc2c[nH]c3cc(F)c(F)cc23)cc(N2CCC(F)(F)CC2)n1 [Compound 175, N-(5,6-difluoro-1H-indol-3-yl)-2-(4,4-difluoropiperidin-1-yl)-6-methylisonicotinamide]
40 to 200	O=C(Nc1c[nH]c2ccc(Cl)cc12)c1cnc(N2C[C@@H]3[C@@H](COCC(F)(F)F)[C@@H]3C2)c(F)c1 [Compound 224, N-(5-chloro-1H-indol-3-yl)-5-fluoro-6-((1R,5S,6r)-6-((2,2,2-trifluoroethoxy)methyl)-3-azabicyclo[3.1.0]hexan-3-yl)nicotinamide]

SMILES	EC50 [nM]
O=C(Nc1c[nH]c2ccc(-c3cnn(-c4cccc(C5CC5)c4)c3)cc12)c1ccc(OCCCC(F)(F)F)cc1 [Compound 201, N-(5-(1-(3-cyclopropylphenyl)-1H-pyrazol-4-yl)-1H-indol-3-yl)-4-(4,4,4-trifluorobutoxy)benzamide]	200 to 1000
CC(C)n1cc(-c2cc(F)c3[nH]cc(NC(=O)c4ccc(OCCCC(F)(F)F)cc4)c3c2)cn1 [Compound 204, N-(7-fluoro-5-(1-isopropyl-1H-pyrazol-4-yl)-1H-indol-3-yl)-4-(4,4,4-trifluorobutoxy)benzamide]	200 to 1000
N#Cc1cc(C(=O)Nc2c[nH]c3cc(F)c(F)cc23)ccc1OCCCC(F)(F)F [Compound 150, 3-cyano-N-(5,6-difluoro-1H-indol-3-yl)-4-(4,4,4-trifluorobutoxy)benzamide]	40 to 200
Cc1cc(C(=O)Nc2c[nH]c3cc(F)c(F)cc23)ccc1OC1CC(F)(F)C1 [Compound 165, N-(5,6-difluoro-1H-indol-3-yl)-4-(3,3-difluorocyclobutoxy)-3-methylbenzamide]	40 to 200
